{
  "source": "patent US9730872B2",
  "about": "“Method for improving skin conditions with veratric acid or acceptable salt thereof as an active ingredient” (Bio Spectrum, Inc., priority 2012, dated 2017)",
  "key": {"[1]": {"test_system": "human skin", "assay": "Wrinkle-reducing effect of nourishing cream, skin elasticity", "type": "in vivo", "details": "face, twice a day, 3 months, scale 0 to 5", "experimental": "Specifically, an aqueous phase including purified water, triethanolamine, and propylene glycol was dissolved by heating to 70° C., and an oily phase including fatty acid, oily components, an emulsifier, and a preservative was dissolved by heating to 70° C. and added to the aqueous phase. Then, the resulting solution was cooled to 45° C., and veratric acid was added with in amounts of 0, 0.01, 0.05 and 1 wt % based on the total weight of the composition and was dispersed, followed by cooling to 30° C.\nIn the measurement of skin elasticity, nourishing creams described in Preparation Example 8-1 was applied to the face of 30 healthy women of 21 to 42 years old twice a day for 3 months. The control group was used nourishing cream containing purified water.\nThe effect on wrinkle reduction was evaluated by measuring a change in skin elasticity. The measurement of skin elasticity was performed with Coutometer SEM 474 (Courage+Khazaka, Cologne, Germany) under the conditions of constant temperature of 24˜26° C. and constant humidity of 38-40%. The evaluation criteria were as follows 0 indicating no improvement in skin elasticity, and 5 indicating improvement in skin elasticity."}, "[2]": {"test_system": "transforming growth factor-beta1 (TGF-beta1)", "assay": "Inhibition of TGF-beta1 production in hair follicle dermal papilla cells (ELISA)", "type": "cell-based, Human", "details": "0, 10 and 100 μM, 48 hours; FIG. 3", "experimental": "(§1) Human hair follicle dermal papillar cells (Application, Inc., USA) were seeded into a 24-well micro plate at a density of 7.5×10^4 cells per well, and then were cultured in a 5% CO2 incubator at 37° C. for 24 hours. Then, the medium was replaced with serum-free medium, followed by being cultured for 16 hours. Then, each well was treated with 0, 10 and 100 μM of veratric acid, after which the cells were incubated for 48 hours. Then, the cell culture media were collected.\nThe secretion rate of transforming growth factor-beta1 (TGF-beta1) was determined by measuring the amount of secretion rate of TGF-beta1 using Human LAP TFG-beta1 ELISA kit (ab100647, abcam, USA)."}, "[3]": {"test_system": "insulin-like growth factor-1 (IGF-1)", "assay": "IGF-1 secretion of hair follicle dermal papilla cells (ELISA)", "type": "cell-based, Human", "details": "0, 10 and 100 μM, 48 hours; FIG. 2", "experimental": "as §1, with “at” for “at a”\nThe secretion rate of growth factor insulin-like growth factor-1 (IGF-1) was determined by measuring the amount of secretion rate of IGF-1 using Insulin-like growth factor-1 quantikine ELISA kit (DG100, R&D system, USA)."}, "[4]": {"test_system": "Human hair follicle dermal papillar cells", "assay": "Proliferation of human hair follicle dermal papilla cells (MTT)", "type": "cell-based", "details": "0, 10 and 100 μM, 72 hours, FIG. 1", "experimental": "Human hair follicle dermal papillar cells (Application, Inc., USA) were seeded into a 6-well micro plate containing DMEM medium (Gibco, USA) with FBS at a density of 3×10^5 cells per well, and then were cultured in a 5% CO2 incubator at 37° C. for 24 hours. The next day, the cells were washed once with serum-free medium, and the medium was replaced with serum-free medium. Then, the cells were treated with 0, 10 and 100 μM of veratric acid, followed by incubating for 72 hours, after which the cells were washed once with serum-free medium, the medium was replaced with serum-free medium containing 10% MTT, and after 3 hours, the optical density (O.D.) value was measured and calculated as a percentage of control."}, "[5]": {"test_system": "hairless mice (Skh: HR-1)", "assay": "Wrinkle prevention by oral administration in UV-irradiated hairless mice (skin replicas)", "type": "in vivo", "details": "100 mg per kg oral, 5 weeks", "experimental": "In order to measure the wrinkle-preventing effect of veratric acid, 6-7-week-old hairless mice (Skh: HR-1) were divided into a control group, a UV group and a UV/veratric acid group, each consisting of 8 animals, and were bred during the test period. The control group and the UV group were administered orally with 0.5 ml of saline, and the UV/veratric acid group was administered orally with a solution of 100 mg per kg veratric acid in 0.5 ml of saline.\nThe above-prepared samples were administered orally at the same point of time for 5 days a week for a total of 5 weeks. From 2 weeks to 5 weeks after oral administration, the UV group and the UV/veratric acid group were irradiated with UV light three times a week such that the total dose of UV radiation reached 600 mJ/cm^2.\nTo measure the wrinkle-preventing effect of veratric acid, skin replicas were taken from the back of the hairless mice using a silicon polymer before autopsy. In the same manner, after 5 weeks, skin replicas were taken from the groups treated with each of the samples. Using the taken skin replicas, the antiaging effect, i.e., wrinkle-reducing effect of each sample was measured."}, "[6]": {"test_system": "Keratinocyte (HaCaT)", "assay": "UV-preventing effect, cell viability after UVB (MTT), keratinocytes", "type": "cell-based", "details": "pretreated 0, 1, 10 and 100 μM 24 hours, UVB 20 mJ/cm^2, 48 hours; FIG. 6", "experimental": "(§2) Keratinocyte (HaCaT) and fibroblast were cultured in DMEM medium containing penicillin-streptomycin and serum. Then, the cells were seeded into a 12-well micro plate at density of about 1×10^5 cells per well, and were cultured in a 5% CO2 incubator at 37° C. until the cells attached about 80% over on well-area. Then, each well was pretreated with 0, 1, 10 and 100 μM of veratric acid, and after 24 hours, the medium was replaced with PBS, and then the cells were irradiated with UV (UVB 20 mJ/cm^2). Then, the UV-irradiated cells were replaced DMEM medium containing penicillin-streptomycin and serum, the cells were incubated for 48 hours. The cell viability was determined by measuring the viability of keratinocyte (HaCaT) and fibroblast using a MTT assay (30-1010K, ATCCTM)."}, "[7]": {"test_system": "collagenase (MMP-1)", "assay": "Inhibition of collagenase production in human normal fibroblasts (MMP-1 ELISA)", "type": "cell-based", "details": "0, 1, 10 and 100 μM, 24 hours; FIG. 7", "experimental": "(§3) Human normal fibroblasts (Department of Dermatology, Ajou University) were seeded into a 24-well micro plate containing DMEM medium at a density of about 2×10^5 cells per well, and were then cultured in a 5% CO2 incubator at 37° C. for 24 hours. Then, the medium was removed from each well, and the cells were treated with 0, 1, 10 and 100 μM concentrations of veratric acid. Then, the cells were cultured for 24 hours, after which the cell culture media were collected, thereby preparing samples.\nThe inhibition effects of collagenase production was determined by measuring the amount of collagenase using MMP-1 ELISA kit (QIA55, Merck, Germany)."}, "[8]": {"test_system": "procollagen type I C-peptide (PICP)", "assay": "Collagen synthesis in human normal fibroblasts (PICP EIA)", "type": "cell-based", "details": "0, 1, 10 and 100 μM, 24 hours; FIG. 4", "experimental": "as §3, with “were” for “were then”, “each well of the plate,” for “each well,”, “and each well was” for “and the cells were”, “veratric acid, after which” for “veratric acid. Then,”, “24 hours. Then,” for “24 hours, after which”, “cell medium was” for “cell culture media were”\nThe amounts of collagen synthesis in the above-prepared samples was determined by measuring the amount of procollagen type I C-peptide (PICP) using a Procollagen Type I C-peptide EIA kit (MK101; Takara, Kyoto, Japan)."}, "[9]": {"test_system": "fibroblast", "assay": "UV-preventing effect, cell viability after UVB (MTT), fibroblasts", "type": "cell-based", "details": "pretreated 0, 1, 10 and 100 μM 24 hours, UVB 20 mJ/cm^2, 48 hours; FIG. 5", "experimental": "as §2"}, "[10]": {"details": "UV/veratric acid group, UV total 600 mJ/cm^2"}},
  "data": [
    {"compound": "COc1ccc(C(=O)O)cc1OC", "note": "[Veratric acid, 3,4-dimethoxybenzoic acid]", "values": [
      {"measurement": "Skin elasticity", "setting": "[1]; veratric acid 0.01 wt %", "value": 2.81},
      {"measurement": "Skin elasticity", "setting": "[1]; veratric acid 0.05 wt %", "value": 3.12},
      {"measurement": "Skin elasticity", "setting": "[1]; veratric acid 1 wt %", "value": 3.36},
      {"measurement": "TGF-beta1 production", "setting": "[2]", "value": "excellently inhibited TGF-beta1 production"},
      {"measurement": "IGF-1 secretion", "setting": "[3]", "value": "increased the IGF-1 secretion of human hair follicle dermal pailla cells in a concentration-dependent manner"},
      {"measurement": "proliferation of human hair follicle dermal papilla cells (O.D. as percentage of control)", "setting": "[4]", "value": "increased the proliferation of human hair follicle dermal papilla cells in a concentration-dependent manner"},
      {"measurement": "R-parameter value compared to the UV/control groups", "setting": "[5]", "value": "reduced"},
      {"measurement": "R1 value: Skin roughness", "setting": "[5]; [10]", "value": "0.462 ± 0.013"},
      {"measurement": "R2 value: Maximum roughness", "setting": "[5]; [10]", "value": "0.405 ± 0.011"},
      {"measurement": "R3 value: Average roughness", "setting": "[5]; [10]", "value": "0.219 ± 0.012"},
      {"measurement": "R4 value: Smoothness depth", "setting": "[5]; [10]", "value": "0.116 ± 0.010"},
      {"measurement": "R5 value: Arithmetic average roughness", "setting": "[5]; [10]", "value": "0.290 ± 0.013"},
      {"measurement": "cell death of UV-induced keratinocyte (cell viability)", "setting": "[6]", "value": "prevented cell death"},
      {"measurement": "collagenase production", "setting": "[7]", "value": "decreased collgenase production in human normal fibroblasts"},
      {"measurement": "collagen synthesis (PICP)", "setting": "[8]", "value": "increased collagen synthesis"},
      {"measurement": "cell death of UV-induced fibroblasts (cell viability)", "setting": "[9]", "value": "prevented cell death"}
    ]}
  ]
}
